Experimental findings from ChEMBL document CHEMBL4819024, “Synthesis and evaluation of andrographolide derivatives as potent anti-osteoporosis agents in vitro and in vivo” (Eur J Med Chem, 2021) are described below.

Activity calls are given as the source filed them. The rule behind the calls is not given here.

For data set [1], the system named is BMMC. The data set can be described thus: Anti-osteoporosis activity in C57BL/6 mouse BMM cells assessed as inhibition of M-CSF/RANKL-induced osteoclastogenesis by measuring reduction in multinucleated TRAP+ cells incubated for 5 days with media replenishment for every 48 hrs measured by TRAP-staining based analysis. The class given is functional, cell-based. The note with it: C57BL/6, BMMC.

Data set [2] is described as follows: Cytotoxicity against C57BL/6 mouse BMM cells assessed as reduction in cell viability measured after 48 hrs in presence of M-CSF by CCK8 assay. The conditions noted are these: BMM cells (bone marrow-derived). The class given is cell-based, BMMC. On the technique in general: Tetrazolium dyes change colour on reduction, which living cells bring about.
In data set [3] the test system is BMMC. The data set can be described thus: Anti-osteoporosis activity in C57BL/6 mouse BMM cells assessed as inhibition of M-CSF/RANKL-induced bone resorption by measuring suppression of reabsorbing pits formation after 48 hrs by hydroxyapatite assay using Leica inverted microscope. The data set is classed as functional, cell-based. The conditions noted are these: dose 1-10 µM.

The test system of data set [4] is Mus musculus. Kind of data set: Antiosteoporotic activity against OVX-induced bone loss C57BL/6 mouse model assessed as increase in bone volume/total bone volume in femoral metaphysis at 10 mg/kg, po QD for 4 weeks. The class given is functional, organism-based. The conditions noted are these: dose 10.0 mg/kg/day.
For data set [5], the system named is Mus musculus. The data set can be described thus: Antiosteoporotic activity against OVX-induced bone loss C57BL/6 mouse model assessed as increase in trabecular thickness in femoral metaphysis at 10 mg/kg, po QD for 4 weeks. The data set is classed as functional, organism-based. The note with it: dose 10.0 mg/kg/day.
Data set [6] concerns Mus musculus. Kind of data set: Antiosteoporotic activity against OVX-induced bone loss C57BL/6 mouse model assessed as increase in trabecular number in femoral metaphysis at 10 mg/kg, po QD for 4 weeks. The class given is functional, organism-based. The conditions noted are these: dose 10.0 mg/kg/day.
For data set [7], the system named is Mus musculus. The data set can be described thus: Antiosteoporotic activity against OVX-induced bone loss C57BL/6 mouse model assessed as decrease in trabecular spacing in femoral metaphysis at 10 mg/kg, po QD for 4 weeks. The data set is classed as functional, organism-based. The note with it: dose 10.0 mg/kg/day.
The test system of data set [8] is Mus musculus. Kind of data set: Antiosteoporotic activity against OVX-induced bone loss C57BL/6 mouse model assessed as decrease in ACP5 level in serum at 10 mg/kg, po QD for 4 weeks. The class given is functional, organism-based. The conditions noted are these: dose 10.0 mg/kg/day.

For the compound `C=C1CC[C@@H]2[C@](C)(CNCc3ccc(C)cc3)[C@H](O)CC[C@@]2(C)[C@@H]1/C=C/C1=CCOC1=O`, the IC50 (in general, the concentration needed to halve the response being measured) in the data set on BMMC [1] came to 0.74 µM.
As to `C=C1CC[C@@H]2[C@](C)(CNCCc3cccs3)[C@H](O)CC[C@@]2(C)[C@@H]1/C=C/C1=CCOC1=O`, the IC50 in the data set with BMMC [1] came to 3.02 µM.
Regarding `C=C1CC[C@@H]2[C@](C)(CO)[C@H](O)CC[C@@]2(C)[C@@H]1CC=O`, in the data set with BMMC [1], the IC50 is over 30 µM. The CC50 (as a rule, the concentration that lowers cell viability or growth by half) at 48 h in data set [2] was over 30 µM.
For `C=C1CC[C@@H]2[C@](C)(CNCc3ccccc3)[C@H](O)CC[C@@]2(C)[C@@H]1/C=C/C1=CCOC1=O`, the IC50 in the data set with BMMC [1] worked out at 0.96 µM.
The same measure, in the same setting: the value for `C=C1CC[C@H]2[C@@](C)(CC[C@@H](O)[C@@]2(C)C(=O)NCCc2ccccc2)[C@@H]1/C=C/C1=CCOC1=O` was over 30 µM.
Regarding `C=C1CC[C@@H]2[C@](C)(CO)[C@H](O)CC[C@@]2(C)[C@@H]1CCC1C(=O)OC[C@H]1O` (stereo partly drawn), the IC50 in the data set with BMMC [1] was over 30 µM. The CC50 at 48 h in data set [2] is over 30 µM.
Regarding `C=C1CC[C@@H]2[C@](C)(CNCc3ccc(Cl)cc3)[C@H](O)CC[C@@]2(C)[C@@H]1/C=C/C1=CCOC1=O`, the IC50 with BMMC [1] came out at 0.42 µM.
On the same count and under the same terms, the figure for `C=C1CC[C@@H]2[C@](C)(CNCCc3ccc(C(F)(F)F)cc3)[C@H](O)CC[C@@]2(C)[C@@H]1/C=C/C1=CCOC1=O` is 2.98 µM; for `C=C1CC[C@@H]2[C@](C)(CNCc3nccs3)[C@H](O)CC[C@@]2(C)[C@@H]1/C=C/C1=CCOC1=O` it is 0.7 µM; for `C=C1CC[C@H]2[C@@](C)(CC[C@@H](O)[C@@]2(C)C(=O)NCc2ccc(Br)cc2)[C@@H]1/C=C/C1=CCOC1=O` it is 3.45 µM.
On the same count and under the same terms, the value for `C=C1CC[C@@H]2[C@](C)(CNCc3ccc4c(c3)CC=N4)[C@H](O)CC[C@@]2(C)[C@@H]1/C=C/C1=CCOC1=O` was 0.55 µM; that for `C=C1CC[C@H]2[C@@](C)(CC[C@@H](O)[C@@]2(C)C(=O)NCc2ccccc2)[C@@H]1/C=C/C1=CCOC1=O` was 19.4 µM; that for `C=C1CC[C@H]2[C@@](C)(CC[C@@H](O)[C@@]2(C)C(=O)NCc2ccc(OC)cc2)[C@@H]1/C=C/C1=CCOC1=O` was 6.53 µM.
As to `C=C1CC[C@@H]2[C@](C)(CO)[C@H](O)CC[C@@]2(C)[C@@H]1C/C=C1/C(=O)OC[C@H]1O` [ANDROGRAPHOLIDE], the IC50 in the data set on BMMC [1] turned out to be 1.01 µM. In addition, the CC50 at 48 h in data set [2] was determined as 10.3 µM. For the same compound, the outcome in the data set with BMMC [3], in the data set on Mus musculus [4], in the data set with Mus musculus [5], with Mus musculus [6], with Mus musculus [7] and in the data set on Mus musculus [8] was Active.
In the case of `C=C1CC[C@@H]2[C@](C)(CNCCc3cccc(OC)c3)[C@H](O)CC[C@@]2(C)[C@@H]1/C=C/C1=CCOC1=O`, the IC50 with BMMC [1] came to 5.45 µM.
Still for that read-out and setting: the value for `C=C1CC[C@H]2[C@@](C)(CC[C@@H](O)[C@@]2(C)C(=O)NCCc2cccs2)[C@@H]1/C=C/C1=CCOC1=O` was over 30 µM.
The same measure, in the same setting: the figure for `C=C1CC[C@@H]2[C@](C)(CNCCc3ccc(OC)cc3)[C@H](O)CC[C@@]2(C)[C@@H]1/C=C/C1=CCOC1=O` is 1.88 µM.
As to `C=C1CC[C@@H]2[C@](C)(CNCc3ccco3)[C@H](O)CC[C@@]2(C)[C@@H]1/C=C/C1=CCOC1=O`, the IC50 in the data set on BMMC [1] was 1.83 µM.
The same measure, in the same setting: the figure for `C=C1CC[C@@H]2[C@](C)(CNCc3ccc(Br)cc3)[C@H](O)CC[C@@]2(C)[C@@H]1/C=C/C1=CCOC1=O` is 0.43 µM.
Still for that read-out and setting: the value for `C=C1CC[C@@H]2[C@](C)(CNCCc3ccccc3)[C@H](O)CC[C@@]2(C)[C@@H]1/C=C/C1=CCOC1=O` was 1.02 µM; that for `C=C1CC[C@H]2[C@@](C)(CC[C@@H](O)[C@@]2(C)C(=O)NCCc2ccc(F)cc2)[C@@H]1/C=C/C1=CCOC1=O` was over 30 µM.
As to `C=C1CC[C@@H]2[C@](C)(CO)[C@H](O)CC[C@@]2(C)[C@@H]1C/C=C(/C(=O)O)[C@H](O)CO`, the IC50 in the data set on BMMC [1] was over 30 µM. Also, in data set [2], the CC50 at 48 h is over 30 µM.
Consider `C=C1CC[C@@H]2[C@](C)(CO)[C@H](O)CC[C@@]2(C)[C@@H]1/C=C/C1=CCOC1=O`, for which the IC50 in the data set with BMMC [1] stood at 8.34 µM. For the same compound, the CC50 at 48 h in data set [2] was over 30 µM.
On to `C=C1CC[C@@H]2[C@](C)(CNCc3cccc(OC)c3)[C@H](O)CC[C@@]2(C)[C@@H]1/C=C/C1=CCOC1=O`, for which the IC50 in the data set with BMMC [1] was 0.78 µM.
The same measure, in the same setting: the value for `NCCCC(O)(P(=O)(O)O)P(=O)(O)O` [ALENDRONATE SODIUM] was 1.71 µM; that for `C=C1CC[C@@H]2[C@](C)(CNCCc3ccc(F)cc3)[C@H](O)CC[C@@]2(C)[C@@H]1/C=C/C1=CCOC1=O` was 0.48 µM.
The same measure, in the same setting: the value for `C=C1CC[C@@H]2[C@](C)(CNCc3ccncc3)[C@H](O)CC[C@@]2(C)[C@@H]1/C=C/C1=CCOC1=O` was 2.03 µM.
As for `C=C1CC[C@@H]2[C@](C)(CNCCc3ccc(C)cc3)[C@H](O)CC[C@@]2(C)[C@@H]1/C=C/C1=CCOC1=O`, the IC50 with BMMC [1] was determined as 0.87 µM.
The same measure, in the same setting: the figure for `C=C1CC[C@H]2[C@@](C)(CC[C@@H](O)[C@@]2(C)C(=O)NCCc2ccc(OC)cc2)[C@@H]1/C=C/C1=CCOC1=O` is over 30 µM.
Still for that read-out and setting: the figure for `C=C1CC[C@@H]2[C@](C)(CNCc3ccc(O)c(O)c3)[C@H](O)CC[C@@]2(C)[C@@H]1/C=C/C1=CCOC1=O` is 9.44 µM; for `C=C1CC[C@@H]2[C@](C)(CNCc3ccc(OC)c(OC)c3)[C@H](O)CC[C@@]2(C)[C@@H]1/C=C/C1=CCOC1=O` it is 3.74 µM; for `C=C1CC[C@@H]2[C@](C)(CNCc3ccc(OC)cc3)[C@H](O)CC[C@@]2(C)[C@@H]1/C=C/C1=CCOC1=O` it is 0.75 µM.
Take `C=C1CC[C@@H]2[C@](C)(CNCc3ccc([N+](=O)[O-])cc3)[C@H](O)CC[C@@]2(C)[C@@H]1/C=C/C1=CCOC1=O`: the IC50 with BMMC [1] amounted to 1.34 µM.
Turning to `C=C1CC[C@@H]2[C@](C)(CNCc3ccc(C#N)cc3)[C@H](O)CC[C@@]2(C)[C@@H]1/C=C/C1=CCOC1=O`, the IC50 in the data set on BMMC [1] is 1.13 µM.
For `C=C1CC[C@@H]2[C@](C)(CO)[C@H](O)CC[C@@]2(C)[C@@H]1C/C=C1\C=COC1=O`, in the data set on BMMC [1], the half-maximal inhibitory concentration (IC50) worked out at 2.77 µM. Besides, in data set [2], the CC50 at 48 h is 20.6 µM.
On to `C=C1CC[C@@H]2[C@](C)(CNCc3cccs3)[C@H](O)CC[C@@]2(C)[C@@H]1/C=C/C1=CCOC1=O`, for which the IC50 in the data set with BMMC [1] is 1.07 µM.
